“And” between values parts separate entries of the source, which are not always exact repeats. Equal entries are not always repeated. The source made the active and inactive calls. No rule for the calls is given here.

This test relates to HeLa, chromatin condensation phenotype imaging. Put plainly: HeLa chromatin condensation increase, dose response, imaging, IC50 (AID 1117350).
On to `NCCNc1ccc(NCCN)c2c1C(=O)c1ccncc1C2=O`, for which the IC50 was > 10 µM (inactive).

In the case of `O=C(CCBr)N1CCN(C(=O)CCBr)CC1`, the IC50 is > 10 µM (inactive).

`NC(=NCCCCCCN=C(N)/N=C(\N)Nc1ccc(Cl)cc1)/N=C(\N)Nc1ccc(Cl)cc1`: the IC50 is > 10 µM (inactive).

In the case of `O=C(O)CCCc1ccc(N(CCCl)CCCl)cc1`, the IC50 is > 10 µM (inactive).

Regarding `C[C@@H]1C[C@@H]([C@H](O)CC2CC(=O)NC(=O)C2)C(=O)[C@@H](C)C1`, the IC50 was > 10 µM (inactive).

For the compound `CN(C)/N=N/c1nc[nH]c1C(N)=O`, the IC50 is > 10 µM (inactive).

With `CC[C@]1(O)C[C@H]2CN(CCc3c([nH]c4ccccc34)[C@@](C(=O)OC)(c3cc4c(cc3OC)N(C=O)[C@H]3[C@@](O)(C(=O)OC)[C@H](OC(C)=O)[C@]5(CC)C=CCN6CC[C@]43[C@@H]65)C2)C1`, the IC50 is 0.0061 µM.

As for `COc1ccc(/C=C/C(=O)c2ccc(OC)cc2OC)cc1`, the IC50 was > 10 µM (inactive).

In the case of `O=c1[nH]c(=O)n([C@H]2C[C@H](O)[C@@H](CO)O2)cc1Br`, the IC50 was > 10 µM (inactive).

Take `CN(C)CCOC(c1ccccc1)c1ccc(Br)cc1` (centres undefined): the IC50 is > 10 µM (inactive).

Turning to `CC(=O)O[C@@]12CO[C@@H]1C[C@H](O)[C@@]1(C)C(=O)[C@H](O)C3=C(C)[C@@H](OC(=O)[C@H](O)[C@@H](NC(=O)OC(C)(C)C)c4ccccc4)C[C@@](O)([C@@H](OC(=O)c4ccccc4)[C@H]21)C3(C)C`, the IC50 is 0.00317 µM.

As to `O=C1C2CC=CCC2C(=O)N1SC(Cl)(Cl)Cl` (centres undefined), the IC50 was 6.14 µM (inactive).

For `Cn1cnc([N+](=O)[O-])c1Sc1ncnc2nc[nH]c12`, the IC50 is > 10 µM (inactive).

`CC(C)OC(=O)OCOP(=O)(CO[C@H](C)Cn1cnc2c(N)ncnc21)OCOC(=O)OC(C)C`: the IC50 was > 10 µM (inactive).

As for `CCN(CC)CCOc1ccc(C(O)(Cc2ccc(Cl)cc2)c2ccc(C)cc2)cc1` (centres undefined), the IC50 is > 10 µM (inactive).

Regarding `O=c1[nH]c(=O)n([C@H]2C[C@H](O)[C@@H](CO)O2)cc1I`, the IC50 is > 10 µM (inactive).

As to `Cc1ccc(Nc2nccc(N(C)c3ccc4c(C)n(C)nc4c3)n2)cc1S(N)(=O)=O`, the IC50 was > 10 µM (inactive).

As to `COc1ccc(-c2nc3ccc(C4=NNC(=O)CC4C)cc3[nH]2)cc1` (centres undefined), the IC50 is > 10 µM (inactive).

Take `CC(C)=CCNc1ncnc2c1ncn2[C@@H]1O[C@H](CO)[C@@H](O)[C@H]1O`: the IC50 was > 10 µM (inactive).

Turning to `CC(=O)[C@]1(O)Cc2c(O)c3c(c(O)c2[C@@H](O[C@H]2C[C@H](N)[C@H](O)[C@H](C)O2)C1)C(=O)c1ccccc1C3=O`, the IC50 was 0.659 µM.

Consider `Cc1ccc([N+](=O)[O-])[c]2c1[O][Hg]2`, for which the IC50 is 1.22 µM.

Take `Cc1c(C)c2c(c(C)c1O)CCC(C)(COc1ccc(CC3SC(=O)NC3=O)cc1)O2` (centres undefined): the IC50 is > 10 µM (inactive).

For the compound `CCCCCCNC(=O)n1cc(F)c(=O)[nH]c1=O`, the IC50 is > 10 µM (inactive).

Consider `C[C@]12CC[C@@H]3c4ccc(O)cc4CC[C@H]3[C@@H]1CC[C@@H]2OC(=O)CCC1CCCC1`, for which the IC50 was > 10 µM (inactive).

On to `C=C(C)[C@H]1Cc2c(ccc3c2O[C@@H]2COc4cc(OC)c(OC)cc4[C@@H]2C3=O)O1`, for which the IC50 was 0.223 µM.

In the case of `Cc1cc(N)c2ccccc2[n+]1CCCCCCCCCC[n+]1c(C)cc(N)c2ccccc21`, the IC50 is > 10 µM (inactive).

With `Clc1ccccc1C(c1ccccc1)(c1ccccc1)n1ccnc1`, the IC50 was > 10 µM (inactive).

As to `CN1CC[C@H](c2c(O)cc(O)c3c(=O)cc(-c4ccccc4Cl)oc23)[C@H](O)C1`, the IC50 is 0.0807 µM.

Regarding `O=C(O)CCc1nc2ccccc2[nH]1`, the IC50 was > 10 µM (inactive).

Consider `C[C@@H]1C[C@H]2[C@@H]3CCC4=CC(=O)C=C[C@]4(C)[C@@]3(Cl)[C@@H](O)C[C@]2(C)[C@@]1(OC(=O)c1ccco1)C(=O)CCl`, for which the IC50 was > 10 µM (inactive).

`COc1cc(NC(C)CCCN)c2ncccc2c1` (centres undefined): the IC50 was > 10 µM (inactive).

As to `CCc1oc2ccccc2c1C(=O)c1cc(I)c(O)c(I)c1`, the IC50 was > 10 µM (inactive).

On to `CC[C@H]1CN2CCc3cc(OC)c(OC)cc3[C@@H]2C[C@@H]1C[C@H]1NCCc2cc(OC)c(OC)cc21`, for which the IC50 is 0.948 µM.

Consider `CCN1/C(=C/C=C/c2sc3ccccc3[n+]2CC)Sc2ccccc21`, for which the IC50 is 4.48 µM.

For the compound `CC[n+]1c(-c2ccccc2)c2cc(N)ccc2c2ccc(N)cc21`, the IC50 was > 10 µM (inactive).

Consider `Nc1nc(=O)n([C@@H]2O[C@H](CO)[C@@H](O)[C@@H]2F)cc1I`, for which the IC50 was > 10 µM (inactive).

As for `O=C(NOCC1CC1)c1ccc(F)c(F)c1Nc1ccc(I)cc1Cl`, the IC50 is > 10 µM (inactive).

On to `CN(C)CCC=C1c2ccccc2CCc2ccccc21`, for which the IC50 is > 10 µM (inactive).

Consider `O=C(c1cc(O)c(O)c(O)c1)c1ccc(O)c(O)c1O`, for which the IC50 was > 10 µM (inactive).

For `COc1ccc(-c2ccc3cc(C(=O)O)ccc3c2)cc1C12CC3CC(CC(C3)C1)C2`, the IC50 was > 10 µM (inactive).

Regarding `Oc1c(Cl)cc(Cl)cc1Sc1cc(Cl)cc(Cl)c1O`, the IC50 is > 10 µM (inactive).

Turning to `COC(=O)Nc1nc2ccc(C(=O)c3ccccc3)cc2[nH]1`, the IC50 was 0.0648 µM.

As for `COc1cc([C@@H]2c3cc4c(cc3[C@H](O)[C@H]3COC(=O)[C@H]23)OCO4)cc(OC)c1OC`, the 50% inhibitory concentration (IC50) is 0.0112 µM.

Take `O=C1C(I)=CC(=C(c2cc(I)c(O)c(I)c2)c2ccccc2C(=O)O)C=C1I`: the IC50 is > 10 µM (inactive).

With `CCCCC(CC)CN=C(N)NC(N)=NCCCCCCN=C(N)NC(N)=NCC(CC)CCCC` (centres undefined), the IC50 was > 10 µM (inactive).

For the compound `Cc1cc(CC(C)CC(C)(C)C)n(O)c(=O)c1` (centres undefined), the IC50 is > 10 µM (inactive).

On to `CC(C)(C)C1CCC(CC2=C(O)c3ccccc3C(=O)C2=O)CC1` (centres undefined), for which the IC50 is > 10 µM (inactive).

Regarding `COc1cccc2c1C(=O)c1c(O)c3c(c(O)c1C2=O)C[C@@](O)(C(C)=O)C[C@@H]3O[C@H]1C[C@H](N)[C@H](O)[C@H](C)O1`, the IC50 was 0.374 µM.

With `C1CN(P2(N3CC3)=NP(N3CC3)(N3CC3)=NP(N3CC3)(N3CC3)=N2)CCO1` (centres undefined), the IC50 was > 10 µM (inactive).

As to `CC(C)=CCOc1ccc(/C=C/C(=O)c2ccc(OCC=C(C)C)cc2OCC(=O)O)cc1`, the IC50 is > 10 µM (inactive).

For `CC[C@]1(O)C[C@@H]2CN(CCc3c([nH]c4ccccc34)[C@@](C(=O)OC)(c3cc4c(cc3OC)N(C)[C@H]3[C@@](O)(C(=O)OC)[C@H](OC(C)=O)[C@]5(CC)C=CCN6CC[C@]43[C@@H]65)C2)C1`, the IC50 is 0.00452 µM and 0.0032 µM.

With `CC(=O)Nc1ccn(C2COC(COC(=O)c3ccccc3)O2)c(=O)n1` (centres undefined), the IC50 was > 10 µM (inactive).

For `CC(C)=CCC/C(C)=C/CC/C(C)=C/C(=O)OCC(=O)[C@@]1(O)CC[C@H]2[C@@H]3CCC4=CC(=O)C=C[C@]4(C)[C@H]3[C@@H](O)C[C@@]21C`, the IC50 is > 10 µM (inactive).

With `CCCCC1C(=O)N(c2ccccc2)N(c2ccc(O)cc2)C1=O` (centres undefined), the IC50 is > 10 µM (inactive).

Regarding `Cc1ccc2nc(N)[nH]c(=O)c2c1Sc1ccncc1`, the IC50 is > 10 µM (inactive).

For the compound `CC(C)(C)C(=O)OCOP(=O)(COCCn1cnc2c(N)ncnc21)OCOC(=O)C(C)(C)C`, the IC50 was > 10 µM (inactive).

For the compound `O=C1c2c(O)cccc2Cc2cccc(O)c21`, the IC50 is > 10 µM (inactive).

Take `O=C(O)c1ccc(-n2nc(-c3ccccc3O)nc2-c2ccccc2O)cc1`: the IC50 is > 10 µM (inactive).

As for `O=c1[nH]c(=O)n([C@H]2C[C@H](O)[C@@H](CO)O2)cc1F`, the IC50 is > 10 µM (inactive).

On to `Clc1ccc(Nc2nnc(Cc3ccncc3)c3ccccc23)cc1`, for which the IC50 was > 10 µM (inactive).

`CCCCCCCCCCCC(=O)[O][Sn]([CH2]CCC)([CH2]CCC)[O]C(=O)CCCCCCCCCCC`: the IC50 is > 10 µM (inactive).

Take `CCc1oc2ccccc2c1C(=O)c1cc(Br)c(O)c(Br)c1`: the IC50 was > 10 µM (inactive).

For the compound `COc1ccc2cc3[n+](cc2c1OC)CCc1cc2c(cc1-3)OCO2`, the IC50 was > 10 µM (inactive).

On to `Nc1nc(F)nc2c1ncn2[C@@H]1O[C@H](CO)[C@@H](O)[C@@H]1O`, for which the IC50 is > 10 µM (inactive).

Take `CN1CCC(Nc2ncc3ncnc(Nc4ccc(F)c(Cl)c4)c3n2)CC1`: the IC50 is > 10 µM (inactive).

`COC(=O)[C@H]1[C@H]2C[C@@H]3c4[nH]c5cc(OC)ccc5c4CCN3C[C@H]2C[C@@H](OC(=O)/C=C/c2ccc(O)c(OC)c2)[C@@H]1OC`: the IC50 is > 10 µM (inactive).

As to `O=C(CCl)c1ccc(Cl)cc1Cl`, the 50% inhibitory concentration (IC50) was 0.541 µM.

On to `CCCCCCCCCCCC[N+](C)(C)Cc1ccccc1`, for which the IC50 is > 10 µM (inactive).

Consider `CC(C)n1c(/C=C/[C@@H](O)C[C@@H](O)CC(=O)O)c(-c2ccc(F)cc2)c2ccccc21`, for which the IC50 is > 10 µM (inactive).

Consider `CCC(C)n1ncn(-c2ccc(N3CCN(c4ccc(OC[C@H]5CO[C@](Cn6cncn6)(c6ccc(Cl)cc6Cl)O5)cc4)CC3)cc2)c1=O` (some centres undefined), for which the IC50 was > 10 µM (inactive).

As to `CCN(CC)CCNC(=O)c1c(C)[nH]c(/C=C2\C(=O)Nc3ccc(F)cc32)c1C`, the IC50 was 3.81 µM.

On to `Oc1c(I)cc(Cl)c2cccnc12`, for which the IC50 was > 10 µM (inactive).

Consider `CCC(C)(C)C(=O)O[C@H]1C[C@@H](C)C=C2C=C[C@H](C)[C@H](CC[C@@H]3C[C@@H](O)CC(=O)O3)[C@H]21`, for which the IC50 is > 10 µM (inactive).

With `COc1ccc(Cc2nccc3cc(OC)c(OC)cc23)cc1OC`, the IC50 is > 10 µM (inactive).

Regarding `CC[C@@]1(O)C(=O)OCc2c1cc1n(c2=O)Cc2cc3c(CN(C)C)c(O)ccc3nc2-1`, the IC50 was > 10 µM (inactive).

Regarding `CCC(=O)c1ccc(O)cc1`, the IC50 was > 10 µM (inactive).

As to `Nc1nc(Cl)nc2c1ncn2[C@@H]1O[C@H](CO)[C@@H](O)[C@@H]1F`, the IC50 was > 10 µM (inactive).

Consider `Cc1ccc(CCn2c3c(c4cc(Cl)ccc42)CN(C)CC3)cn1`, for which the IC50 is > 10 µM (inactive).

For `O=C1c2c(O)ccc(O)c2C(=O)c2c(NCCNCCO)ccc(NCCNCCO)c21`, the IC50 is > 10 µM (inactive).

The IC50 is the concentration that inhibits the measured activity by half.
